Source: patent US20260226065A1, “SUBSTITUTED BENZENE COMPOUND” (DAIICHI SANKYO COMPANY, LIMITED, priority 2023, published 2026)

molecular target: T1, NLRP3 inflammasome (Homo sapiens, UniProt Q96P20); assay: In vitro IL-1β production test (PMA-differentiated THP-1 cells, Nigericin stimulation, AlphaLISA); assay type: cell-based; details: inhibition of IL-1β production; THP-1 cells differentiated with 200 nM PMA; 0.015 mM Nigericin; 2 hours
T1 construct: endogenous in cells; host or cells: THP-1 (human monocyte-derived), PMA-differentiated, Nigericin-stimulated
T1 sequence (Q96P20 whole entry): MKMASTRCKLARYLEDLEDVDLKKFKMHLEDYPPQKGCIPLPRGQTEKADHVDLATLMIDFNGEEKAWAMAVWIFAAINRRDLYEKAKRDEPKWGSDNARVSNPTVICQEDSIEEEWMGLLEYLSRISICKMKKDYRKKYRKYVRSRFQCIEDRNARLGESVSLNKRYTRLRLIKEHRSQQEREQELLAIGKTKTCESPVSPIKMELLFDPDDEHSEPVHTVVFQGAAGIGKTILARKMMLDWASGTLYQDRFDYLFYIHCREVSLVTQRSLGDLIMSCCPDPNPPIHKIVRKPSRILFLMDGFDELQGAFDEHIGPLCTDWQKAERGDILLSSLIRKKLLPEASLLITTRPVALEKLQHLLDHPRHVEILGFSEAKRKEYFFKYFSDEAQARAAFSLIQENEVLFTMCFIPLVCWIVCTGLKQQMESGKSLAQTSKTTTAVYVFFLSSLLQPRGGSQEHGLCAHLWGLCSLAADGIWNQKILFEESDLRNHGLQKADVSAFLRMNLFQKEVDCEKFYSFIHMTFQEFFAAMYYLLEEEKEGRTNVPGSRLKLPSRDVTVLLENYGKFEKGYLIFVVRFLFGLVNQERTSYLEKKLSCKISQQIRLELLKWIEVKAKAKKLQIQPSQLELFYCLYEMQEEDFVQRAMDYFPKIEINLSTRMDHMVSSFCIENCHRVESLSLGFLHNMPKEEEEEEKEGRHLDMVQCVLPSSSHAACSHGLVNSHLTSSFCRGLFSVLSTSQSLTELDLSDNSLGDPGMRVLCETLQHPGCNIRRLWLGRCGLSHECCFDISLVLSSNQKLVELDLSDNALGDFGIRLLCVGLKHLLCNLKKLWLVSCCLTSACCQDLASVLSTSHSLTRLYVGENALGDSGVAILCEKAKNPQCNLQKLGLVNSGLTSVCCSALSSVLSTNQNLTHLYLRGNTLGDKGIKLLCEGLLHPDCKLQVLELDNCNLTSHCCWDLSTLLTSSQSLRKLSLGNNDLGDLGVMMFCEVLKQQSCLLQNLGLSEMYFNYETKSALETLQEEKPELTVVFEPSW
Description: Human monocyte-derived THP-1 cells were cultured for one day in 10% bovine serum-containing RPMI-1640 medium (Thermo #A10491-01) supplemented with 200 nM phorbol 12-myristate 13-acetate (PMA, Sigma #P8139) to induce differentiation.
NLRP3 inflammasome was induced by replacing the culture medium with bovine serum-free RPMI-1640 medium supplemented with 0.015 mM Nigericin (Sigma #SML1779) and the test compound of known concentrations.
After 2 hours, the culture medium supernatant was collected and the IL-1β protein concentration was measured using the AlphaLISA (registered trademark) assay (PerkinElmer #AL220C).
The IL-1β concentration without the addition of the test compound and with Nigericin stimulation was set as 0% inhibitory activity, and the IL-1β concentration without Nigericin stimulation was set as 100% inhibitory activity, and the inhibition rate (% inhibition) of the test compound at each added concentration was calculated.
The % inhibition value was subjected to sigmoid fitting using a logistic regression model to calculate the 50% inhibitory concentration (IC50 value).

Compound	IC50 [nM]
Cc1cc(C(F)(F)F)cc(O)c1-c1cc2c(nn1)N([C@H]1CN(C)CC[C@H]1O)CC2 [Example 49, (3S,4R)-3-{3-[2-hydroxy-6-methyl-4-(trifluoromethyl)phenyl]-5,6-dihydro-7H-pyrrolo[2,3-c]pyridazin-7-yl}-1-methylpiperidin-4-ol]	78
Cc1c(F)c(C(F)(F)F)cc(O)c1-c1cc2c(C)cn([C@H]3C[C@@](C)(O)C3)c2nn1 [Example 50, 4-fluoro-2-{7-[(1s,3s)-3-hydroxy-3-methylcyclobutyl]-5-methyl-7H-pyrrolo[2,3-c]pyridazin-3-yl}-3-methyl-5-(trifluoromethyl)phenol]	236
Cc1cc(C(F)(F)F)cc(O)c1-c1cc2c(C)c(C)n([C@H]3C[C@@](C)(O)C3)c2nn1 [Example 51, 2-{7-[(1s,3s)-3-hydroxy-3-methylcyclobutyl]-5,6-dimethyl-7H-pyrrolo[2,3-c]pyridazin-3-yl}-3-methyl-5-(trifluoromethyl)phenol]	33.6
Cc1cc(C#N)cc(O)c1-c1cc2c(C)cn([C@H]3C[C@@](C)(O)C3)c2nn1 [Example 52, 3-hydroxy-4-{7-[(1s,3s)-3-hydroxy-3-methylcyclobutyl]-5-methyl-7H-pyrrolo[2,3-c]pyridazin-3-yl}-5-methylbenzonitrile]	39.1
Cc1cn([C@H]2C[C@@](C)(O)C2)c2nnc(-c3c(O)cc(C(F)(F)F)cc3C#N)cc12 [Example 53, 3-hydroxy-2-{7-[(1s,3s)-3-hydroxy-3-methylcyclobutyl]-5-methyl-7H-pyrrolo[2,3-c]pyridazin-3-yl}-5-(trifluoromethyl)benzonitrile]	275
Cc1cc(C(F)(F)F)cc(O)c1-c1cc2c(C)cn([C@@H]3CCC[C@@H](O)C3)c2nn1 [Example 54, 2-{7-[(1R,3R)-3-hydroxycyclohexyl]-5-methyl-7H-pyrrolo[2,3-c]pyridazin-3-yl}-3-methyl-5-(trifluoromethyl)phenol]	84.3
Cc1cc(C(F)(F)F)cc(O)c1-c1cc2c(C)cn([C@@H]3CCCN(C)C3)c2nn1 [Example 56, 3-methyl-2-{5-methyl-7-[(3R)-1-methylpiperidin-3-yl]-7H-pyrrolo[2,3-c]pyridazin-3-yl}-5-(trifluoromethyl)phenol]	14.4
Cc1cc(C(F)(F)F)cc(O)c1-c1cc2c(nn1)N([C@@H]1CCCN(CC(C)(C)O)C1)CC2 [Example 58, 2-{7-[(3R)-1-(2-hydroxy-2-methylpropyl)piperidin-3-yl]-6,7-dihydro-5H-pyrrolo[2,3-c]pyridazin-3-yl}-3-methyl-5-(trifluoromethyl)phenol]	55.8
Cc1cc(C(F)(F)F)cc(O)c1-c1cc2c(C(F)(F)F)cn([C@H]3C[C@@](C)(O)C3)c2nn1 [Example 59, 2-{7-[(1s,3s)-3-hydroxy-3-methylcyclobutyl]-5-(trifluoromethyl)-7H-pyrrolo[2,3-c]pyridazin-3-yl}-3-methyl-5-(trifluoromethyl)phenol]	95.8
Cc1cc(C(F)(F)F)cc(O)c1-c1cc2c(nn1)N([C@@H]1C[C@@H](F)CN(C)C1)CC2 [Example 60, 2-{7-[(3R,5R)-5-fluoro-1-methylpiperidin-3-yl]-6,7-dihydro-5H-pyrrolo[2,3-c]pyridazin-3-yl}-3-methyl-5-(trifluoromethyl)phenol]	74.8
Cc1cc(C(F)(F)F)cc(O)c1-c1cc2c(nn1)N([C@@H]1CCCN(CC3CC3)C1)CC2 [Example 61, 2-{7-[(3R)-1-(cyclopropylmethyl)piperidin-3-yl]-6,7-dihydro-5H-pyrrolo[2,3-c]pyridazin-3-yl}-3-methyl-5-(trifluoromethyl)phenol]	25.3
CCc1cc(C)c(-c2cc3c(C)cn([C@H]4C[C@@](C)(O)C4)c3nn2)c(O)c1 [Example 62, 5-ethyl-2-{7-[(1s,3s)-3-hydroxy-3-methylcyclobutyl]-5-methyl-7H-pyrrolo[2,3-c]pyridazin-3-yl}-3-methylphenol]	70.8
CCN1CC2(O)CC(n3cc(C)c4cc(-c5c(C)cc(C(F)(F)F)cc5O)nnc43)(C1)C2 [Example 75, 3-ethyl-5-{3-[2-hydroxy-6-methyl-4-(trifluoromethyl)phenyl]-5-methyl-7H-pyrrolo[2,3-c]pyridazin-7-yl}-3-azabicyclo[3.1.1]heptan-1-ol]	98.4

Other lines, results leading:

IC50 [nM]	Compound
42.3	Cc1cn([C@H]2C[C@@](C)(O)C2)c2nnc(-c3c(O)cc(Cl)cc3Cl)cc12 [Example 63, 3,5-dichloro-2-{7-[(1s,3s)-3-hydroxy-3-methylcyclobutyl]-5-methyl-7H-pyrrolo[2,3-c]pyridazin-3-yl}phenol]
9.6	CCN1CCC[C@@H](n2cc(C#N)c3cc(-c4c(C)cc(C(F)(F)F)cc4O)nnc32)C1 [Example 64, 7-[(3R)-1-ethylpiperidin-3-yl]-3-[2-hydroxy-6-methyl-4-(trifluoromethyl)phenyl]-7H-pyrrolo[2,3-c]pyridazine-5-carbonitrile]
47	Cc1cc(C(F)(F)F)cc(O)c1-c1cc2c(C)cn(C34COCC(O)(C3)C4)c2nn1 [Example 65, 5-{3-[2-hydroxy-6-methyl-4-(trifluoromethyl)phenyl]-5-methyl-7H-pyrrolo[2,3-c]pyridazin-7-yl}-3-oxabicyclo[3.1.1]heptan-1-ol]
16.4	CCN1C[C@H](F)C[C@@H](N2CCc3cc(-c4c(C)cc(C(F)(F)F)cc4O)nnc32)C1 [Example 66, 2-{7-[(3R,5R)-1-ethyl-5-fluoropiperidin-3-yl]-6,7-dihydro-5H-pyrrolo[2,3-c]pyridazin-3-yl}-3-methyl-5-(trifluoromethyl)phenol]
4.93	CCN1CCC[C@@H](n2cc(C#N)c3cc(-c4c(C)cc(OC(F)F)cc4O)nnc32)C1 [Example 67, 3-[4-(difluoromethoxy)-2-hydroxy-6-methylphenyl]-7-[(3R)-1-ethylpiperidin-3-yl]-7H-pyrrolo[2,3-c]pyridazine-5-carbonitrile]
6.01	Cc1cc(OC(F)F)cc(O)c1-c1cc2c(C#N)cn([C@@H]3CCCN(C(C)C)C3)c2nn1 [Example 68, 3-[4-(difluoromethoxy)-2-hydroxy-6-methylphenyl]-7-[(3R)-1-(propan-2-yl)piperidin-3-yl]-7H-pyrrolo[2,3-c]pyridazine-5-carbonitrile]
47.8	Cc1cc(C(C)(F)F)cc(O)c1-c1cc2c(C)cn([C@H]3C[C@@](C)(O)C3)c2nn1 [Example 69, 5-(1,1-difluoroethyl)-2-{7-[(1s,3s)-3-hydroxy-3-methylcyclobutyl]-5-methyl-7H-pyrrolo[2,3-c]pyridazin-3-yl}-3-methylphenol]
31.2	Cc1cc(C(F)(F)F)cc(O)c1-c1cc2c(C)cn(C34CCC(O)(C3)C4)c2nn1 [Example 70, 4-{3-[2-hydroxy-6-methyl-4-(trifluoromethyl)phenyl]-5-methyl-7H-pyrrolo[2,3-c]pyridazin-7-yl}bicyclo[2.1.1]hexan-1-ol]
8.18	CCN1CCC[C@@H](n2cc(C)c3cc(-c4c(C)cc(OC(F)F)cc4O)nnc32)C1 [Example 71, 5-(difluoromethoxy)-2-{7-[(3R)-1-ethylpiperidin-3-yl]-5-methyl-7H-pyrrolo[2,3-c]pyridazin-3-yl}-3-methylphenol]
53.1	COc1cn([C@H]2C[C@@](C)(O)C2)c2nnc(-c3c(C)cc(OC(F)F)cc3O)cc12 [Example 72, 5-(difluoromethoxy)-2-{7-[(1s,3s)-3-hydroxy-3-methylcyclobutyl]-5-methoxy-7H-pyrrolo[2,3-c]pyridazin-3-yl}-3-methylphenol]
26.1	Cc1cc(OC(F)F)cc(O)c1-c1cc2c(C#N)cn([C@H]3C[C@@](C)(O)C3)c2nn1 [Example 74, 3-[4-(difluoromethoxy)-2-hydroxy-6-methylphenyl]-7-[(1s,3s)-3-hydroxy-3-methylcyclobutyl]-7H-pyrrolo[2,3-c]pyridazine-5-carbonitrile]
14	CCN1CCC[C@@H](n2cc(OC)c3cc(-c4c(C)cc(C(F)(F)F)cc4O)nnc32)C1 [Example 77, 2-{7-[(3R)-1-ethylpiperidin-3-yl]-5-methoxy-7H-pyrrolo[2,3-c]pyridazin-3-yl}-3-methyl-5-(trifluoromethyl)phenol]
35	Cc1cc(OC(F)F)cc(O)c1-c1cc2c(OC(F)F)cn([C@H]3C[C@@](C)(O)C3)c2nn1 [Example 78, 5-(difluoromethoxy)-2-[5-(difluoromethoxy)-7-[(1s,3s)-3-hydroxy-3-methylcyclobutyl]-7H-pyrrolo[2,3-c]pyridazin-3-yl]-3-methylphenol]
22.4	Cc1cc(OC(F)F)cc(O)c1-c1cc2c3c(n([C@H]4C[C@@](C)(O)C4)c2nn1)CCC3 [Example 80, 5-(difluoromethoxy)-2-{8-[(1s,3s)-3-hydroxy-3-methylcyclobutyl]-5,6,7,8-tetrahydrocyclopenta[4,5]pyrrolo[2,3-c]pyridazin-3-yl}-3-methylphenol]
54.7	Cc1cc(C(F)(F)F)cc(O)c1-c1cc2c3ccccc3n([C@H]3C[C@@](C)(O)C3)c2nn1 [Example 81, 2-{9-[(1s,3s)-3-hydroxy-3-methylcyclobutyl]-9H-pyridazino[3,4-b]indol-3-yl}-3-methyl-5-(trifluoromethyl)phenol]
7.83	Cc1cc(Cl)cc(O)c1-c1cc2c3c(n([C@H]4C[C@@](C)(O)C4)c2nn1)CCC3 [Example 82, 5-chloro-2-{8-[(1s,3s)-3-hydroxy-3-methylcyclobutyl]-5,6,7,8-tetrahydrocyclopenta[4,5]pyrrolo[2,3-c]pyridazin-3-yl}-3-methylphenol]
